In paper PMC8518382, “Identification of a Bromodomain‐like Region in 15‐Lipoxygenase‐1 Explains Its Nuclear Localization” (Angewandte Chemie (International Ed. in English), 2021):
pKd: −log10 of the molar value.

Legend:
[1] = target: H3K4Ac peptide; assay: ELISA; ELISA formatted binding study between histone H3 peptides and 15‐LOX‐1; concentrations up to 20 μM; Hill‐slopes equal 1; not told which partner was immobilised
[2] = target: H3K56Ac peptide; assay: as above
[3] = target: T1, 5-LOX (Homo sapiens, UniProt P09917); assay: ABP-based ELISA assay with A549 cell lysate, 5-LOX; assay type: biochemical
T1 construct: the endogenous LOXs were captured on an anti‐LOX antibody precoated 96‐well plate; endogenous in cells; host or cells: A549 cell lysate
T1 sequence (P09917 1-674): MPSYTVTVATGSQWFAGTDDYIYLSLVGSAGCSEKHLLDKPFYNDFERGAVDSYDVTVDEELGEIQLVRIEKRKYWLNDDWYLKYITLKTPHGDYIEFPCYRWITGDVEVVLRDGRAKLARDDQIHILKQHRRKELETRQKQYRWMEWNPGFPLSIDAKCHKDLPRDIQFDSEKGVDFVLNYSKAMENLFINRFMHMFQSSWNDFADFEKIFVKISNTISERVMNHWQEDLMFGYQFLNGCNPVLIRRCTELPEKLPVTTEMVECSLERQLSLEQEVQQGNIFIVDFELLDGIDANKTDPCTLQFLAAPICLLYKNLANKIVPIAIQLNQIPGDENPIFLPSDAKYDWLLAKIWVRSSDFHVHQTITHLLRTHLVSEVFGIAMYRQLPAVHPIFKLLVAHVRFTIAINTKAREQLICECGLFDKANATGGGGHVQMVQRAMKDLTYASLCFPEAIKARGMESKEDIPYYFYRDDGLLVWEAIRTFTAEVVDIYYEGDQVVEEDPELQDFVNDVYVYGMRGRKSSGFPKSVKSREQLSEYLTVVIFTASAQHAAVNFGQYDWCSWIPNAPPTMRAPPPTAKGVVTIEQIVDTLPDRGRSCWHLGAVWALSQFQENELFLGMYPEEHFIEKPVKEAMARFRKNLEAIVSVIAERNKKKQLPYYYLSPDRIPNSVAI
Description: (§1) A549 cell lysate was treated with a serial dilution of the respective inhibitor. Subsequently, samples were labeled by treatment with 1 μM of Labelox B for 1 min. […] Data are mean±s.d., n≥3 independent experiments. […]
(§2) 1.6. Immunoblotting Analysis […]
(§3) 1.7. ABPP-based LOX inhibitor specificity validation
(§4) A549 cells were lysed by RIPA buffer supplemented with 1x PIC. After sonication and centrifugation, the supernatant was collected, and the protein concentration was determined by a Pierce BCA Protein Assay Kit (Thermo Fisher Scientific, USA). The lysates were then diluted with PBS to 300 ng/µl and stored in -20°C. To label endogenous LOXs with Labelox B under the competition condition, 180 µl diluted lysates were incubated with 200 µl different LOX inhibitor solution (in PBS) with desired concentrations for 18 min to inhibit LOXs activity. Later, 20 µl of a 20 µM Labelox B (in PBS) was added and incubated shortly for 2 min, followed by adding 50 µl of a 0.5 M EDTA to stop the labeling reaction. The reaction mixture was 450 µl in total. Inhibitors and Labelox B were absent in positive and […]
(§5) negative control, respectively. To detect the competition labeling of Labelox B among different LOXs, a high-binding 96-well plate (Greiner, #M4561) was coated with 5-LOX (#ab169755, Abcam), 12-LOX […]
(§6) (1:500 dilution in PBS) for overnight at 4°C. After washing triply with 0.05%PBST, the plate was blocked with 2% (w/v) BSA in PBST. Subsequently, 100 µl of each reaction mixture was added to the LOX-antibody-coated wells. There are four LOX antibodies used for coating. Therefore, in total, 400 µl mixture is needed for each reaction. After one hour of incubation, LOXs were pulled down by antibodies accordingly. Next, 100 µl of HRP-conjugated streptavidin (1:2000 dilution in PBS, Thermo Fisher Scientific, USA) was added to each well to detect the D04 labeled LOXs among precipitated LOXs. After washing with PBST, 100 µl of mixed HRP substrate reagent (R&D Systems, Minneapolis, USA) was added, and the colorizing reaction was stopped by adding 100 µl of 1M sulfuric acid. The absorbance at […]

[4] = target: T2, 12-LOX (Homo sapiens, UniProt P18054); assay: ABP-based ELISA assay with A549 cell lysate, 12-LOX; assay type: biochemical
T2 construct: the endogenous LOXs were captured on an anti‐LOX antibody precoated 96‐well plate; endogenous in cells; host or cells: A549 cell lysate
T2 sequence (P18054 1-663): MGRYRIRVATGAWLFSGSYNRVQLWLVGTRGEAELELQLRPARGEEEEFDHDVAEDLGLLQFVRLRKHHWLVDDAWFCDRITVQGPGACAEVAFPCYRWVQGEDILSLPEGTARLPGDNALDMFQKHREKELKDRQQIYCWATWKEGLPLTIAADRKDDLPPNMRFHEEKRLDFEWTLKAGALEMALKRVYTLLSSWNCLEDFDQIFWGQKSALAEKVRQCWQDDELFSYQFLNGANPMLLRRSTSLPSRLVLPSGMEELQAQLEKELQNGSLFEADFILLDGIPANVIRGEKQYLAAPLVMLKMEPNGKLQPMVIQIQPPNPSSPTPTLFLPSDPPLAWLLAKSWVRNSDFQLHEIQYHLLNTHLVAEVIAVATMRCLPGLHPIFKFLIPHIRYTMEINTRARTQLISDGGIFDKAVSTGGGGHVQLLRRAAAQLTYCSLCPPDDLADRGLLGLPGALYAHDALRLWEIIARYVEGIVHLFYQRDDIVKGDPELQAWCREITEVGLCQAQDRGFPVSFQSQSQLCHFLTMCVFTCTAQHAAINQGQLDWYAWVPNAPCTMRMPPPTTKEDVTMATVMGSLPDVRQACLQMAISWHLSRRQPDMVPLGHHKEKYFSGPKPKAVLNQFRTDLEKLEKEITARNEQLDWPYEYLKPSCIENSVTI
Description: as §1, §2, §3, §4, §5, §6

[5] = target: T3, 15-LOX-1 (Homo sapiens, UniProt P16050); assay: ABP-based ELISA assay with A549 cell lysate, 15-LOX-1; assay type: biochemical; design: the endogenous LOXs were captured on an anti‐LOX antibody precoated 96‐well plate; endogenous in cells; host or cells: A549 cell lysate
T3 sequence (P16050 1-662): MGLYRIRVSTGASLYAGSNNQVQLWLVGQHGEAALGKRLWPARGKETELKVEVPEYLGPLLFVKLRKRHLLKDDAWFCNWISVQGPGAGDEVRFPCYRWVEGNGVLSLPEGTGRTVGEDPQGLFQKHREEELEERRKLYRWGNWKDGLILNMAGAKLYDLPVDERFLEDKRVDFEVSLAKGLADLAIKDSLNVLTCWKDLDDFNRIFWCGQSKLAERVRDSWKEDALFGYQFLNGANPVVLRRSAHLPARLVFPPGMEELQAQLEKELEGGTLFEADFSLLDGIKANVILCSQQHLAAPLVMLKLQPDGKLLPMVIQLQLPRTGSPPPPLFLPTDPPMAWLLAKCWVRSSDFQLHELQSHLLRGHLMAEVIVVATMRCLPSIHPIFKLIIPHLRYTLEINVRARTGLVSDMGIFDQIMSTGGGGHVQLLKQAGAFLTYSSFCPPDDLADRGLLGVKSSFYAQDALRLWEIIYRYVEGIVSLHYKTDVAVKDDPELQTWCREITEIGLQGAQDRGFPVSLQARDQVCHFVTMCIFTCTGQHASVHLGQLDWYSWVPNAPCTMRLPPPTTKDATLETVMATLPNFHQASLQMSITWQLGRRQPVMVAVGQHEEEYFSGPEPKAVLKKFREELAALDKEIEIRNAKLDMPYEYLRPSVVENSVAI
Description: as §1, §2, §3, §4, §5, §6

Row | Compound | pKd [1] | pKd [2] | HillSlope Value [3] | HillSlope Value [4] | IC50 ([4]; 1 μM Labelox B) [µM] | Effect on ABP labeling [5]
1 | recombinant 15‐LOX‐1 (from UniProt P16050 1-662) (enzyme) | < 4.70 | 5.78 | – | – | – | –
2 | CC(c1cc2ccccc2s1)N(O)C(N)=O (stereo not drawn) [Zileuton] | – | – | -0.48 | -0.47 | 554 | little or no effect
